The results in this text go back to paper PMC4129951 (Nature chemical biology, 2010).

The target of one assay is T1, LysC; aspartokinase III (Escherichia coli, UniProt P08660).
T1 sequence (P08660 2-449): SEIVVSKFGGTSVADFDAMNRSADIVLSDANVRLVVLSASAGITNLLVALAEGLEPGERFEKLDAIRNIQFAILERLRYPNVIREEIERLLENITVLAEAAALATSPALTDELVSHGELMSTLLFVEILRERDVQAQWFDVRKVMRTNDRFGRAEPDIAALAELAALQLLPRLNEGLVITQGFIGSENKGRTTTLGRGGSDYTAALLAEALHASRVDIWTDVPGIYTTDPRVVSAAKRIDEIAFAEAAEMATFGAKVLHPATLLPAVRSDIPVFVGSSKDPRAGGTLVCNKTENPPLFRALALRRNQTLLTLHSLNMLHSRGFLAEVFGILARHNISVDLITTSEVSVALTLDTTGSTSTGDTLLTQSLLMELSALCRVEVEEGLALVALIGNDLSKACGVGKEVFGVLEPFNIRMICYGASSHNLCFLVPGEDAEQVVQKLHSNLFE
The experiment in a line: in vitro reaction, product confirmed by LC-MS. The format is biochemical. The note with it: product trapped with L-Cys as β-aspartyl cysteine.

Assay [1] has as its target T2, ProA(wt); γ-glutamyl phosphate reductase (Escherichia coli, UniProt P07004).
T2 sequence (P07004 1-417): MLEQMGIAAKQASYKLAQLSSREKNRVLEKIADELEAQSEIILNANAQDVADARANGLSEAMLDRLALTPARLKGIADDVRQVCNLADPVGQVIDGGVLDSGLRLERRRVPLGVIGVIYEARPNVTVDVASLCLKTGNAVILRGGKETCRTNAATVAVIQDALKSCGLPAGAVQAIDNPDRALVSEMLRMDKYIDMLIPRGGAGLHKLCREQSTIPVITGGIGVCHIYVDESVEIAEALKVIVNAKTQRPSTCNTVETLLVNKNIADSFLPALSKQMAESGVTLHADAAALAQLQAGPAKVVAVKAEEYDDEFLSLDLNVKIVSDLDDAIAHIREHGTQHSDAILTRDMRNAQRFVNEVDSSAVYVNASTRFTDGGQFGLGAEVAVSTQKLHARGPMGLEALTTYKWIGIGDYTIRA
As to the kind of experiment: NADPH oxidation in coupled assay with ProB. The format is biochemical. The following applies: γ-glutamyl phosphate formed in situ by ProB from L-Glu.

Consider `N[C@@H](CC(=O)O)C(=O)O` [L-Asp], for which the “in vitro reaction, product confirmed by LC-MS” value on LysC; aspartokinase III was “LysC from E. coli was used to convert L-Asp to β-aspartyl phosphate”. On to `NC(=O)C1=CN([C@@H]2O[C@H](COP(=O)(O)OP(=O)(O)OC[C@H]3O[C@@H](n4cnc5c(N)ncnc54)[C@H](OP(=O)(O)O)[C@@H]3O)[C@@H](O)[C@H]2O)C=CC1` [NADPH], for which the “NADPH oxidation in coupled assay with ProB” value in assay [1] was “A coupled in vitro assay, which measures NADPH oxidation by ProA(wt)”.
